# Measured values as given in ChEMBL document CHEMBL1201862, “PubChem BioAssay data set” (2004).
#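 48-hour exposure; five concentrations; linearly interpolated endpoints. At the GI50, growth is halved.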 Active and inactive are the calls of the source. Cut-off read from the data, not from the text of the source: active = GI50 up to about 1.1 µM and inactive = higher.
# Tests used:
# Experiment in all cases: NCI tumour cell line growth inhibition, 48 h
# SNB-75 = tested on: SNB-75
# RXF 393 = tested on: RXF 393
# HOP-92 = tested on: HOP-92
# U-251 = tested on: U-251
# 786-0 = tested on: 786-0
# HOP-62 = tested on: HOP-62
# UO-31 = tested on: UO-31
# TK-10 = tested on: TK-10
# MOLT-4 = tested on: MOLT-4
# HL-60 = tested on: HL-60
# NCI-H522 = tested on: NCI-H522
# ACHN = tested on: ACHN
# M14 = tested on: M14
# K562 = tested on: K562
# SW-620 = tested on: SW-620
# SK-OV-3 = tested on: SK-OV-3
# MDA-MB-231 = tested on: MDA-MB-231
# EKVX = tested on: EKVX
# DU-145 = tested on: DU-145
# MDA-N = tested on: MDA-N
SMILES,GI50 (SNB-75),GI50 (RXF 393),GI50 (HOP-92),GI50 (U-251),GI50 (786-0),GI50 (HOP-62),GI50 (UO-31),GI50 (TK-10),GI50 (MOLT-4),GI50 (HL-60),GI50 (NCI-H522),GI50 (ACHN),GI50 (M14),GI50 (K562),GI50 (SW-620),GI50 (SK-OV-3),GI50 (MDA-MB-231),GI50 (EKVX),GI50 (DU-145),GI50 (MDA-N)
COc1ccc(C(C#N)NNC(=O)Cc2ccccc2)cc1OC (stereo not given),39.9 µM (inactive),> 100 µM (inactive),> 100 µM (inactive),> 100 µM (inactive),> 100 µM (inactive),> 100 µM (inactive),> 100 µM (inactive),> 100 µM (inactive),> 100 µM (inactive),> 100 µM (inactive),> 100 µM (inactive),> 100 µM (inactive),> 100 µM (inactive),> 100 µM (inactive),> 100 µM (inactive),> 100 µM (inactive),,,,
CC(=O)C(C)CCOC1(C)OCCC1C (stereo not given),> 100 µM (inactive),> 100 µM (inactive),> 100 µM (inactive),> 100 µM (inactive),> 100 µM (inactive),> 100 µM (inactive),> 100 µM (inactive),> 100 µM (inactive),> 100 µM (inactive),> 100 µM (inactive),> 100 µM (inactive),> 100 µM (inactive),> 100 µM (inactive),> 100 µM (inactive),> 100 µM (inactive),> 100 µM (inactive),> 100 µM (inactive),> 100 µM (inactive),> 100 µM (inactive),
O=c1c(-c2ccccc2)c(SCCO)n(-c2ccccc2)c(=S)n1-c1ccccc1,39.6 µM (inactive),,,> 100 µM (inactive),> 100 µM (inactive),> 100 µM (inactive),> 100 µM (inactive),> 100 µM (inactive),> 100 µM (inactive),> 100 µM (inactive),> 100 µM (inactive),> 100 µM (inactive),> 100 µM (inactive),> 100 µM (inactive),> 100 µM (inactive),> 100 µM (inactive),,> 100 µM (inactive),> 100 µM (inactive),> 100 µM (inactive)
CC1C(c2ccc3c(c2)OCO3)c2cc3c(cc2OC1N1CCCCC1)OCO3 (stereo not given),,,,,61.5 µM (inactive),> 100 µM (inactive),77.1 µM (inactive),> 100 µM (inactive),36.7 µM (inactive),,31.6 µM (inactive),59.6 µM (inactive),40.2 µM (inactive),35.7 µM (inactive),55 µM (inactive),,,66.2 µM (inactive),52.8 µM (inactive),20.8 µM (inactive)
O=C(NCCNCCCNC(=O)c1cc(-c2ccccc2)nc2ccccc12)c1cccc(O)c1O,10.6 µM (inactive),4.84 µM (inactive),14.9 µM (inactive),2.87 µM (inactive),2.62 µM (inactive),1.05 µM (active),3.3 µM (inactive),1.63 µM (inactive),0.916 µM (active),3.21 µM (inactive),6.82 µM (inactive),2.43 µM (inactive),1.46 µM (inactive),2 µM (inactive),4.47 µM (inactive),6.11 µM (inactive),4.23 µM (inactive),24.4 µM (inactive),3.61 µM (inactive),
C[C@]12CCC[C@H](OC=O)C1(O)C[C@H](C(=O)O)CC2 (stereo not given in full),> 100 µM (inactive),> 100 µM (inactive),> 100 µM (inactive),> 100 µM (inactive),> 100 µM (inactive),> 100 µM (inactive),> 100 µM (inactive),> 100 µM (inactive),> 100 µM (inactive),> 100 µM (inactive),> 100 µM (inactive),> 100 µM (inactive),> 100 µM (inactive),> 100 µM (inactive),> 100 µM (inactive),> 100 µM (inactive),,19.8 µM (inactive),,
CC(C)(C)OC(=O)NNC(=O)C1Cc2ccccc2OC1=O (stereo not given),,> 100 µM (inactive),,> 100 µM (inactive),> 100 µM (inactive),> 100 µM (inactive),> 100 µM (inactive),> 100 µM (inactive),> 100 µM (inactive),,> 100 µM (inactive),> 100 µM (inactive),> 100 µM (inactive),> 100 µM (inactive),> 100 µM (inactive),> 100 µM (inactive),,> 100 µM (inactive),> 100 µM (inactive),> 100 µM (inactive)
O=C(/C=C1/NC(=O)CS1)Nc1ccccc1,50 µM (inactive),> 100 µM (inactive),> 100 µM (inactive),> 100 µM (inactive),> 100 µM (inactive),> 100 µM (inactive),> 100 µM (inactive),> 100 µM (inactive),> 100 µM (inactive),> 100 µM (inactive),> 100 µM (inactive),,> 100 µM (inactive),> 100 µM (inactive),> 100 µM (inactive),> 100 µM (inactive),,> 100 µM (inactive),,
CCN(CC)c1ccc(/N=C2/C=CC(=C(C#N)C#N)c3ccccc32)c(C)c1,1.33 µM (inactive),1.08 µM (active),0.324 µM (active),1.56 µM (inactive),2.22 µM (inactive),2.2 µM (inactive),2.29 µM (inactive),3.25 µM (inactive),1.96 µM (inactive),1.26 µM (inactive),,2.59 µM (inactive),1.48 µM (inactive),1.56 µM (inactive),1.58 µM (inactive),3.83 µM (inactive),,3.21 µM (inactive),,
O=C1CCc2cc(Br)ccc2O1,30.4 µM (inactive),28.2 µM (inactive),24.9 µM (inactive),30 µM (inactive),29.2 µM (inactive),22.4 µM (inactive),,45.7 µM (inactive),> 100 µM (inactive),> 100 µM (inactive),32.7 µM (inactive),49.1 µM (inactive),57 µM (inactive),> 100 µM (inactive),> 100 µM (inactive),,,3.81 µM (inactive),> 100 µM (inactive),> 100 µM (inactive)
OC(/C(=N/c1ccccc1)c1ccccc1)c1ccccc1 (stereo not given),5.6 µM (inactive),12.3 µM (inactive),4.05 µM (inactive),4.1 µM (inactive),10.8 µM (inactive),17.1 µM (inactive),18 µM (inactive),2.72 µM (inactive),6.62 µM (inactive),2.94 µM (inactive),4.35 µM (inactive),14.4 µM (inactive),4.8 µM (inactive),3.85 µM (inactive),10.5 µM (inactive),22.2 µM (inactive),13.8 µM (inactive),2.48 µM (inactive),5.35 µM (inactive),
COC(=O)C1(C(=O)OC)N=C(C)OC1/C=C/c1ccccc1 (stereo not given),> 100 µM (inactive),> 100 µM (inactive),> 100 µM (inactive),> 100 µM (inactive),> 100 µM (inactive),> 100 µM (inactive),> 100 µM (inactive),> 100 µM (inactive),> 100 µM (inactive),> 100 µM (inactive),,> 100 µM (inactive),> 100 µM (inactive),> 100 µM (inactive),> 100 µM (inactive),> 100 µM (inactive),,> 100 µM (inactive),> 100 µM (inactive),> 100 µM (inactive)
CC(C)N1C(C)[C@@H](c2ccccc2)O[P@]1(=O)CC1=CCCCC1 (stereo not given in full),> 100 µM (inactive),> 100 µM (inactive),42.2 µM (inactive),> 100 µM (inactive),> 100 µM (inactive),> 100 µM (inactive),74 µM (inactive),> 100 µM (inactive),44.3 µM (inactive),22.4 µM (inactive),97.5 µM (inactive),> 100 µM (inactive),97.5 µM (inactive),49.3 µM (inactive),61.2 µM (inactive),> 100 µM (inactive),,85.9 µM (inactive),,
O=C1C2=Nc3ccccc3C(O)(C(=O)O)N2c2ccccc21 (stereo not given),27.2 µM (inactive),40 µM (inactive),32.7 µM (inactive),19.9 µM (inactive),36.5 µM (inactive),25.4 µM (inactive),12.5 µM (inactive),81.7 µM (inactive),17.6 µM (inactive),10.7 µM (inactive),17.6 µM (inactive),26.5 µM (inactive),,20.8 µM (inactive),19.4 µM (inactive),,17.2 µM (inactive),60.7 µM (inactive),16.3 µM (inactive),
Cc1ccc(S(=O)(=O)SCc2ccccc2)cc1,> 49.3 µM (inactive),28.4 µM (inactive),22.7 µM (inactive),27 µM (inactive),17.3 µM (inactive),49.7 µM (inactive),> 92.5 µM (inactive),> 55.7 µM (inactive),2.32 µM (inactive),2.44 µM (inactive),7.91 µM (inactive),32.8 µM (inactive),17.9 µM (inactive),4.57 µM (inactive),4.31 µM (inactive),52.2 µM (inactive),,43.8 µM (inactive),,
c1ccc(C(/C(=N/c2ccc(Cc3ccc(/N=C(\C(c4ccccc4)c4ccccc4)N4CC4)cc3)cc2)N2CC2)c2ccccc2)cc1,,1.09 µM (active),,12.7 µM (inactive),14.8 µM (inactive),12.8 µM (inactive),2.6 µM (inactive),14.2 µM (inactive),,4.23 µM (inactive),3.14 µM (inactive),5.82 µM (inactive),14.3 µM (inactive),2.33 µM (inactive),6.3 µM (inactive),< 0.01 µM (active),12.2 µM (inactive),10.1 µM (inactive),12.6 µM (inactive),
